Patent US20240166664A1, “TRIHETEROCYCLIC COMPOUND, PREPARATION METHOD THEREFOR, AND APPLICATION THEREOF” (SHANGHAI APEIRON THERAPEUTICS COMPANY LIMITED, priority 2021, published 2024)
Read-outs that look alike come from different tables or passages of the source.

What was measured:
NCI-H1373 cells = test: Cell proliferation inhibition assay (CTG method); type: cell-based, human; conditions: read-out: IC50 (nM) for NCI-H1373 cell viability
PARP7 = target: T1, PARP7 (Homo sapiens, UniProt Q7Z3E1); test: Test of inhibitory activity against PARP7 enzyme (PARP7 FLAG-tag, Probe A, time-resolved fluorescence); type: biochemical; conditions: PARP7 12 nM, Probe A 2 nM, 1 hr room temperature
T1 construct: purchased BPS 80527
T1 sequence (Q7Z3E1 1-657): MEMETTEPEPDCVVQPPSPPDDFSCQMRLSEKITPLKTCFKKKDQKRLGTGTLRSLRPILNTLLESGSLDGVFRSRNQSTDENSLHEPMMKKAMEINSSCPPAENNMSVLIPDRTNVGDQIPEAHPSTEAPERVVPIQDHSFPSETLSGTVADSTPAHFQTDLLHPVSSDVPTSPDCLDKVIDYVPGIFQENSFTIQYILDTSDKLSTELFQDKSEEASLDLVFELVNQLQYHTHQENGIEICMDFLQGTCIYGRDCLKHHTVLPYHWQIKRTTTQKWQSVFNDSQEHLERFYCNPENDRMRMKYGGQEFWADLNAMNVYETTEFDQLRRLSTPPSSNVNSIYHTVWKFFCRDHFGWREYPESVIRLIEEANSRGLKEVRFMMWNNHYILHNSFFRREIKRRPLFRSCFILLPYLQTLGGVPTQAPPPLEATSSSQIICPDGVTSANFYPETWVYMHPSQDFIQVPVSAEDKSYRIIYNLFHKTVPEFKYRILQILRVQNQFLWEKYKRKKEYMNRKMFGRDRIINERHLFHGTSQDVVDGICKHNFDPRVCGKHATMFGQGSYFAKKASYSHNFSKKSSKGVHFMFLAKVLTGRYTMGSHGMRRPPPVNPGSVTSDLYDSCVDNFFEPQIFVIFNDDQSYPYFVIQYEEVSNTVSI

[1] = Homo sapiens, NCI-H1373, 144 h, NCI-H1373 cells, 6 days incubation, CTG method
[2] = NCI-H1373 cells, 6 days incubation, CTG method

IC50 (NCI-H1373 cells; [1]) [nM]	IC50 (PARP7) [nM]	IC50 (NCI-H1373 cells; [2]) [nM]	Compound	IC50 (NCI-H1373 cells; Homo sapiens, NCI-H1373, 144 h) [nM]
< 100	< 10	–	C[C@@H](COCCC(=O)N1CCN2c3ncc(C(F)(F)F)cc3CCC2C1)Nc1cn[nH]c(=O)c1C(F)(F)F (some centres unmarked) [Compound 32]	–
500 to 5000	< 10	–	C[C@H](COCCC(=O)N1CCN2c3ncc(C(F)(F)F)cc3NCC[C@H]2C1)Nc1cn[nH]c(=O)c1C(F)(F)F (stereo in doubt) [Compound 36, 5-(((R)-1-(3-oxo-3-((S)-3-(trifluoromethyl)-6,7,7a, 8,10,11-hexahydropyrazino[1,2-d]pyrido[3,2-b][1,4]diazepine-9(5H)-yl)propoxy)prop-2-yl)amino)-4-(trifluoromethyl)pyridazin-3(2H)-one]	–
100 to 500	–	–	C[C@@H]1CN2c3ncc(C(F)(F)F)cc3OC[C@H]2CN1C(=O)CCOC[C@H](C)Nc1cn[nH]c(=O)c1C(F)(F)F [Compound 24, 5-(((S)-1-(3-((6aR,9R)-9-methyl-3-(trifluoromethyl)-6a, 7,9,10-tetrahydropyrazino[1,2-d]pyrido[3,2-b][1,4]oxazin-8(6H)-yl)-3-oxypropoxy)prop-2-yl)amino)-4-(trifluoromethyl)pyridazin-3(2H)-one]	–
> 5000	< 10	–	C[C@@H](COCCC(=O)N1CCN2c3nc(N)c(C(F)(F)F)cc3COC[C@H]2C1)Nc1cn[nH]c(=O)c1C(F)(F)F [Compound 77, 5-(((S)-1-(3-((R)-2-amino-3-(trifluoromethyl)-7a, 8, 10, 11-tetrahydro-5H-pyrazino[2,1-c]pyrido[2,3-e][1, 4]oxazepane-9(7H)-yl)-3-oxypropoxy)prop-2-yl)amino)-4-(trifluoromethyl)pyridazin-3(2H)-one]	–
500 to 5000	< 10	–	C[C@@H](COCCC(=O)N1CCN2c3ncc(C(F)(F)F)cc3C(=O)N(C)C[C@H]2C1)Nc1cn[nH]c(=O)c1C(F)(F)F [Compound 42, (S)-6-methyl-9-(3-((S)-2-((6-oxo-5-(trifluoromethyl)-1,6-dihydropyridazin-4-yl)amino)propoxy)propionyl)-3-(trifluoromethyl)-7,7a, 8,9,10,11-hexahydropyrazino[1,2-a]pyrido[3,2-f][1,4]diazepan-5(6H)-one]	–
> 5000	< 10	–	C[C@@H](COCCC(=O)N1CCN2c3ncc(C(F)(F)F)cc3NC(=O)CC2C1)Nc1cn[nH]c(=O)c1C(F)(F)F (single isomer, unassigned) [Compound 84]	–
< 100	< 10	–	C[C@@H](COCCC(=O)N1CCN2c3ncc(C(F)(F)F)cc3OCC[C@H]2C1)Nc1cn[nH]c(=O)c1C(F)(F)F [Compound 29, 5-(((S)-1-(3-oxo-3-((S)-3-(trifluoromethyl)-6,7,7a, 8,10,11-hexahydro-9H-pyrazino[1,2-d]pyrido[3,2-b][1,4]oxazepan-9-yl)propoxy)prop-2-yl)amino)-4-(trifluoromethyl)pyridazin-3(2H)-one]	–
100 to 500	–	–	C[C@@H](COCCC(=O)N1CCN2c3ncc(C(F)(F)F)c(C(F)F)c3OCC[C@H]2C1)Nc1cn[nH]c(=O)c1C(F)(F)F [Compound 62, 5-(((S)-1-(3-((S)-4-(difluoromethyl)-3-(trifluoromethyl)-6,7,7a, 8, 10, 11-hexahydro-9H-pyrazino[1,2-d]pyrido[3,2-b][1, 4]oxazepane-9-yl)-3-oxypropoxy)prop-2-yl)amino)-4-(trifluoromethyl)pyridazin-3(2H)-one]	–
< 100	–	–	CC(COCC(O)C(=O)N1CCN2c3ncc(C(F)(F)F)cc3CCC2C1)Nc1cn[nH]c(=O)c1C(F)(F)F (centres unmarked) [Compound 67]	–
< 100	–	–	C[C@@H](COCCC(=O)N1CCN2c3ncc(C(F)(F)F)cc3COC[C@H]2C1)Oc1cn[nH]c(=O)c1C(F)(F)F [Compound 69, 5-(((S)-1-(3-oxo-3-((R)-3-(trifluoromethyl)-7a, 8, 10, 11-tetrahydro-5H-pyrazino[2,1-c]pyrido[2,3-e][1, 4]oxazepane-9(7H)-yl)propoxy)prop-2-yl)oxy)-4-(trifluoromethyl)pyridazin-3(2H)-one]	–
–	–	< 100	CC(COCC(O)C(=O)N1CCN2c3ncc(C(F)(F)F)cc3CCC2C1)Nc1cn[nH]c(=O)c1C(F)(F)F (centres unmarked) [Compound 68]	–

The next lines start with the molecule.

Compound	IC50 (NCI-H1373 cells; [1]) [nM]	IC50 (PARP7) [nM]	IC50 (NCI-H1373 cells; [2]) [nM]	IC50 (NCI-H1373 cells; Homo sapiens, NCI-H1373, 144 h) [nM]
C[C@@H](COC[C@@H](O)C(=O)N1CCN2c3ncc(C(F)(F)F)cc3C=C[C@@H]2C1)Nc1cn[nH]c(=O)c1C(F)(F)F [Compound 72]	< 100	< 10	–	–
C[C@@H](COCCC(=O)N1CCN2c3ncc(C(F)(F)F)cc3N(C)C(=O)[C@H]2C1)Nc1cn[nH]c(=O)c1C(F)(F)F [Compound 54, (R)-5-methyl-8-(3-((S)-2-((6-oxo-5-(trifluoromethyl)-1,6-dihydropyridazin-4-yl)amino)propoxy)propionyl)-3-(trifluoromethyl)-7,8,9, 10-tetrahydro-5H-pyrazino[1,2-a]pyrido[3,2-e]pyrazin-6(6aH)-one]	–	–	–	< 100
C[C@@H](COCCC(=O)N1CCN2c3ncc(C(F)(F)F)cc3NC(=O)[C@@H]2C1)Nc1cn[nH]c(=O)c1C(F)(F)F [Compound 8, (S)-8-(3-((S)-2-((6-oxo-5-(trifluoromethyl)-1,6-dihydropyridazin-4-yl)amino)propoxy)propionyl)-3-(trifluoromethyl)-7,8,9,10-tetrahydro-5H-pyrazino[1,2-a]pyrido[3,2-e]pyrazin-6(6aH)-one]	–	–	–	100 to 500
C[C@@H](COCCC(=O)N1CCN2c3ncc(C(F)(F)F)cc3C(=O)CC2C1)Nc1cn[nH]c(=O)c1C(F)(F)F (stereo partly drawn) [Compound 37, 8-(3-((S)-2-((6-oxo-5-(trifluoromethyl)-1,6-dihydropyridazin-4-yl)amino)propoxy)propionyl)-3-(trifluoromethyl)-6,6a, 7,8,9,10-hexahydro-5H-pyrazino[1,2-a][1,8]naphthyridin-5-one]	100 to 500	< 10	–	–
C[C@@H](COCCC(=O)N1CCN2c3ncc(C(F)(F)F)cc3C(F)(F)C[C@@H]2C1)Nc1cn[nH]c(=O)c1C(F)(F)F (single isomer, unassigned) [Compound 64]	500 to 5000	< 10	–	–
C[C@@H](COCCC(=O)N1CCN2c3ncc(C(F)(F)F)cc3NC(C)(C)[C@H]2C1)Nc1cn[nH]c(=O)c1C(F)(F)F [Compound 76]	–	< 10	–	–
C[C@@H](COCCC(=O)N1CCN2c3ncc(C(F)(F)F)cc3C=C[C@H]2C1)Nc1cn[nH]c(=O)c1C(F)(F)F [Compound 60]	–	< 10	< 100	–
Cc1c(C(F)(F)F)cnc2c1OC[C@H]1CN(C(=O)CCOC[C@H](C)Nc3cn[nH]c(=O)c3C(F)(F)F)CCN21 [Compound 52, 5-(((S)-1-(3-((R)-4-methyl-3-(trifluoromethyl)-6a, 7,9, 10-tetrahydropyrazino[1,2-d]pyrido[3,2-b][1, 4]oxazinane-8(6H)-yl)-3-oxopropoxy)prop-2-yl)amino)-4-(trifluoromethyl)pyridazin-3(2H)-one]	< 100	< 10	–	–
C[C@@H](COCCC(=O)N1CCN2c3ncc(C(F)(F)F)cc3NC(=O)[C@H]2C1)Nc1cn[nH]c(=O)c1C(F)(F)F [Compound 7, (R)-8-(3-((S)-2-((6-oxo-5-(trifluoromethyl)-1,6-dihydropyridazin-4-yl)amino)propoxy)propionyl)-3-(trifluoromethyl)-7,8,9,10-tetrahydro-5H-pyrazino[1,2-a]pyrido[3,2-e]pyrazin-6(6aH)-one]	–	–	–	500 to 5000
C[C@@H](COCCC(=O)N1CCN2c3ncc(C(F)(F)F)cc3N(C)C(=O)[C@@H]2C1)Nc1cn[nH]c(=O)c1C(F)(F)F [Compound 33, (S)-5-methyl-8-(3-((S)-2-((6-oxo-5-(trifluoromethyl)-1,6-dihydropyridazin-4-yl)amino)propoxy)propionyl)-3-(trifluoromethyl)-7,8,9,10-tetrahydro-5H-pyrazino[1,2-a]pyrido[3,2-e]pyrazin-6(6aH)-one]	–	–	–	< 100
C[C@@H](COCCC(=O)N1CCN2c3ccc(C(F)(F)F)cc3N(C)C(=O)[C@@H]2C1)Nc1cn[nH]c(=O)c1C(F)(F)F [Compound 49]	> 5000	–	–	–
[2H]C([2H])([2H])N1C(=O)[C@@H]2CN(C(=O)CCOC[C@H](C)Nc3cn[nH]c(=O)c3C(F)(F)F)CCN2c2ncc(C(F)(F)F)cc21 [Compound 39, (s)-5-(methyl-D3)-8-(3-((S)-2-((6-oxo-5-(trifluoromethyl)-1,6-dihydropyridazin-4-yl)amino)propoxy)propionyl)-3-(trifluoromethyl)-7,8,9,10-tetrahydro-5H-pyrazino[1,2-a]pyrido[3,2-e]pyrazino-6(6aH)-one]	–	–	–	< 100
CC(COCCC(=O)N1CCN2c3ncc(C(F)(F)F)cc3CN(C)C(=O)C2C1)Nc1cn[nH]c(=O)c1C(F)(F)F [Compound 57, (R)-6-methyl-9-(3-((S)-2-((6-oxo-5-(trifluoromethyl)-1,6-dihydropyridazin-4-yl)amino)propoxy)propionyl)-3-(trifluoromethyl)-5,6,8,9, 10, 11-hexahydropyrazino[1,2-a]pyrido[3,2-f][1, 4]diazepan-7(7aH)-one]	500 to 5000	–	–	–
